Laboratory results: publication PMC6412362 (2019)

How the values were obtained:
[1] = test system: (G4T4G4)2 (DNA, G4) GGGGTTTTGGGG; assay: UV-Vis titration; details: 100 mM KCl, 20 mM potassium phosphate, PBS pH 6.8, 25 °C
[2] = test system: AG3(T2AG3)3 (DNA, G4) AGGGTTAGGGTTAGGGTTAGGG; assay: CD melting at 290 nm; details: 100 mM KCl, 20 mM potassium phosphate; PBS pH 6.8; 6 μM as printed for solutions; derived from two Tm
[3] = test system: (T2G5T)4 (DNA, G4) TTGGGGGT; assay: G4-FID fluorescent intercalator displacement; details: 100 mM KCl, 20 mM potassium phosphate; PBS pH 6.8, 25 °C; thiazole orange displaced
[4] = test system: AG3(T2AG3)3 (DNA, G4) AGGGTTAGGGTTAGGGTTAGGG; assay: G4-FID fluorescent intercalator displacement; details: 100 mM KCl, 20 mM potassium phosphate; PBS pH 6.8, 25 °C; thiazole orange displaced
[5] = test system: 5GC (DNA, duplex) GCGCGCGCGC; assay: G4-FID fluorescent intercalator displacement; details: 100 mM KCl, 20 mM potassium phosphate; PBS pH 6.8, 25 °C; thiazole orange displaced
[6] = test system: AG3(T2AG3)3 (DNA, G4) AGGGTTAGGGTTAGGGTTAGGG; assay: fluorimetric titration, ligand fluorescence, Hill fit; details: 100 mM KCl, 20 mM potassium phosphate; 25 °C; 1 μM ligand, DNA 0-3 μM; apparent; Hill n ≈ 2
[7] = test system: AG3(T2AG3)3 (DNA, G4) AGGGTTAGGGTTAGGGTTAGGG; assay: UV-Vis titration; details: 100 mM KCl, 20 mM potassium phosphate; PBS 0.1 mM EDTA pH 6.8, 25 °C; 2 μM ligand; apparent
[8] = test system: 5GC (DNA, duplex) GCGCGCGCGC; assay: UV-Vis titration; details: 100 mM KCl, 20 mM potassium phosphate; PBS 0.1 mM EDTA pH 6.8, 25 °C; 2 μM ligand; apparent

| binding ([1]; red shift 13 nm) | ΔTm [2] [°C] | DC50 [3] [µM] | DC50 [4] [µM] | DC50 [5] [µM] | KD [6] [µM] | binding ([1]; 2 μM ligand, red shift 17 nm) | KD [7] | KD [8] | binding ([1]; 2 μM ligand, red shift 15 nm) | Structure (SMILES) |
| --- | --- | --- | --- | --- | --- | --- | --- | --- | --- | --- |
| yes | 7.0 | 1.17 ± 0.20 | 1.07 ± 0.09 | 0.94 ± 0.20 | 0.29 | – | – | – | – | C[n+]1ccc(-c2c3nc(c(-c4cc[n+](C)cc4)c4ccc([nH]4)c(-c4cc[n+](C)cc4)c4nc(c(-c5cc[n+](C)cc5)c5ccc2[nH]5)C=C4)C=C3)cc1 |
| – | – | 1.84 ± 0.03 | 1.95 ± 0.26 | 1.93 ± 0.48 | 0.54 | yes | (9.58 ± 0.09) × 10^−6 M | (1.28 ± 0.17) × 10^−5 M | – | C[n+]1ccc(Sc2cc3c(cc2Sc2cc[n+](C)cc2)-c2nc-3nc3nc(nc4[n-]c(nc5[n-]c(n2)c2cc(Sc6cc[n+](C)cc6)c(Sc6cc[n+](C)cc6)cc52)c2cc(Sc5cc[n+](C)cc5)c(Sc5cc[n+](C)cc5)cc42)-c2cc(Sc4cc[n+](C)cc4)c(Sc4cc[n+](C)cc4)cc2-3)cc1.[Zn+2] |
| – | 11.8 | 1.08 ± 0.08 | 1.04 ± 0.28 | 1.30 ± 0.21 | 0.074 | – | (7.61 ± 0.11) × 10^−8 M | (4.74 ± 0.13) × 10^−4 M | yes | COc1cc[n+](-c2cc3c(cc2-[n+]2ccc(OC)cc2)-c2nc-3nc3nc(nc4[n-]c(nc5[n-]c(n2)c2cc(-[n+]6ccc(OC)cc6)c(-[n+]6ccc(OC)cc6)cc52)c2cc(-[n+]5ccc(OC)cc5)c(-[n+]5ccc(OC)cc5)cc42)-c2cc(-[n+]4ccc(OC)cc4)c(-[n+]4ccc(OC)cc4)cc2-3)cc1.[Zn+2] |
